How the values were obtained:
Settings in all cases: incubation time: 72 h
[1] = tested on: BT-474; assay: normalised response (% of control), CellTox Green; higher = less cell death (100 = DMSO, 0 = benzethonium chloride kill control)
Outline: (§1)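 CellTox Green fluorescence (485/520 nm) and, after 10 min at room temperature, CellTiter-Glo luminescence were read from breast cancer cell lines incubated 72 h in 384-well plates. Cells were seeded as 20 µl suspension onto compound at 5 concentrations in 10-fold steps over a 10,000-fold range chosen per compound. Each plate was normalised to 0.1 % DMSO (100) and a positive kill control (0). Values are normalised signals, one per concentration.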

[2] = tested on: BT-549; assay: as above
Outline: as §1

[3] = tested on: CAL-120; assay: as above
Outline: as §1

[4] = tested on: CAL-148; assay: as above
Outline: as §1

[5] = tested on: CAL-51; assay: as above
Outline: as §1

[6] = tested on: CAL-85-1; assay: as above
Outline: as §1

[7] = tested on: DU-4475; assay: as above
Outline: as §1

[8] = tested on: HCC1143; assay: as above
Outline: as §1

[9] = tested on: HCC1599; assay: as above
Outline: as §1

[10] = tested on: HCC1937; assay: as above
Outline: as §1

[11] = tested on: HDQ-P1; assay: as above
Outline: as §1

[12] = tested on: Hs578T; assay: as above
Outline: as §1

[13] = tested on: MCF-10A; assay: as above
Outline: as §1

[14] = tested on: MDA-MB-231; assay: as above
Outline: as §1

[15] = tested on: MDA-MB-436; assay: as above
Outline: as §1

[16] = tested on: MDA-MB-453; assay: as above
Outline: as §1

[17] = tested on: MDA-MB-468; assay: as above
Outline: as §1

[18] = tested on: MFM-223; assay: as above
Outline: as §1

[19] = tested on: BT-474; assay: normalised response (% of control), CellTiter-Glo; higher = more viable cells (100 = DMSO, 0 = benzethonium chloride kill control)
Method: (§2)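 DSRT, 72 h incubation, CellTox Green / CellTiter-Glo readout. Signal is normalised to DMSO and benzethonium chloride controls. Value is the normalised response at the highest dose.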

[20] = tested on: BT-549; assay: as above
Method: as §2

[21] = tested on: CAL-120; assay: as above
Method: as §2

[22] = tested on: CAL-148; assay: as above
Method: as §2

[23] = tested on: CAL-51; assay: as above
Method: as §2

[24] = tested on: CAL-85-1; assay: as above
Method: as §2

[25] = tested on: DU-4475; assay: as above
Method: as §2

[26] = tested on: HCC1143; assay: as above
Method: as §2

[27] = tested on: HCC1599; assay: as above
Method: as §2

[28] = tested on: HCC1937; assay: as above
Method: as §2

[29] = tested on: HDQ-P1; assay: as above
Method: as §2

[30] = tested on: Hs578T; assay: as above
Method: as §2

[31] = tested on: MCF-10A; assay: as above
Method: as §2

[32] = tested on: MDA-MB-231; assay: as above
Method: as §2

[33] = tested on: MDA-MB-436; assay: as above
Method: as §2

[34] = tested on: MDA-MB-453; assay: as above
Method: as §2

[35] = tested on: MDA-MB-468; assay: as above
Method: as §2

[36] = tested on: MFM-223; assay: as above
Method: as §2

[37] = tested on: SK-BR-3; assay: as above
Method: as §2

| SMILES | normalised response [1] | normalised response [2] | normalised response [3] | normalised response [4] | normalised response [5] | normalised response [6] | normalised response [7] | normalised response [8] | normalised response [9] | normalised response [10] | normalised response [11] | normalised response [12] | normalised response [13] | normalised response [14] | normalised response [15] | normalised response [16] | normalised response [17] | normalised response [18] | normalised response [19] | normalised response [20] | normalised response [21] | normalised response [22] | normalised response [23] | normalised response [24] | normalised response [25] | normalised response [26] | normalised response [27] | normalised response [28] | normalised response [29] | normalised response [30] | normalised response [31] | normalised response [32] | normalised response [33] | normalised response [34] | normalised response [35] | normalised response [36] | normalised response [37] |
| --- | --- | --- | --- | --- | --- | --- | --- | --- | --- | --- | --- | --- | --- | --- | --- | --- | --- | --- | --- | --- | --- | --- | --- | --- | --- | --- | --- | --- | --- | --- | --- | --- | --- | --- | --- | --- | --- |
| O=C(Cc1ccc(-c2ccc(OCCN3CCOCC3)cc2)cn1)NCc1ccccc1 [KX2-391] (10000 nM) | 79.9% | 64.9% | 84% | 84.2% | 48.7% | 45.3% | 97.6% | 110% | 67.6% | 12.5% | 8.87% | 26.2% | 50.1% | 50.1% | 51% | 99.2% | 45.4% | 28% | 52% | 45.8% | 60.8% | 54.9% | 25.6% | 56.5% | 58.9% | 56.3% | 9.36% | 69.1% | 73.8% | 18.4% | 77% | 46.6% | 26.2% | 61.2% | 28% | 34.5% | 19.9% |
| Cc1cnc(NC(=O)Nc2cc(Br)c(C)cc2OC[C@@H]2CNCCO2)cn1 [Rabusertib] (1000 nM) | 103% | 109% | 106% | 58.9% | 111% | 59.3% | 102% | 129% | 95.7% | 114% | 110% | 103% | 109% | 100% | 104% | 104% | 137% | 82.7% | 100% | 91.5% | 102% | 112% | 110% | 87.8% | 106% | 99.5% | 29.4% | 80.9% | 100% | 71.3% | 112% | 92.1% | 116% | 77.2% | 102% | 98.2% | 48.6% |
| COc1cc([C@@H]2c3cc4c(cc3[C@@H](O[C@@H]3O[C@@H]5CO[C@@H](c6cccs6)O[C@H]5[C@H](O)[C@H]3O)[C@H]3COC(=O)[C@H]23)OCO4)cc(OC)c1O [Teniposide] (10000 nM) | 59.4% | 59% | 22.2% | 38.7% | 13.6% | -1.62% | 61.9% | 74.5% | 67% | 51% | -41.5% | 45.6% | 59.6% | -78.1% | 80.5% | 105% | 29.8% | 48.8% | 9.52% | 5.21% | 23.6% | 4.81% | 14% | 8.03% | 4.51% | 10.8% | 5.92% | 22.8% | 34.3% | 6.65% | 51.8% | 15.6% | 17.1% | 64% | 7.53% | 12.9% | 6.25% |
| Nc1ccccc1NC(=O)c1ccc(CNC(=O)OCc2cccnc2)cc1 [Entinostat] (10000 nM) | 54.9% | 69.9% | 88.6% | 46.4% | 29% | 8.15% | 73.1% | 104% | 75.2% | 43.6% | 102% | 110% | 90.9% | 29.8% | 38.9% | 90.6% | -141% | 74.4% | 42% | 31.6% | 73.2% | 29.8% | 31.8% | 41.7% | 5.86% | 19% | 32.3% | 67.4% | 73.2% | 48.3% | 82.9% | 39.1% | 71.6% | 21.6% | 19.1% | 18% | 14.2% |

Reference: the supplement of paper PMC4862054
